# ChEMBL document CHEMBL5537135, “Novel antimicrobial peptides modified with fluorinated sulfono-γ-AA having high stability and targeting multidrug-resistant bacteria infections” (Eur J Med Chem, 2024)
# Calls of active or inactive are those of the source. No cut-off for these calls is given here. Numbered stars: 1 amine (or outer) side, 2 acyl side, 3 side chain; on linkers, the order of the positions; unused ones are H or OH. Square brackets hold non-standard residues; d marks the D form. Peptide text beside a SMILES is read from it. * marks the point of attachment. X2 = CC(C)C[C@H](N)CN(CC(=O)[*:2])[*:1]; X1 = O=S(=O)(c1ccc(C(F)(F)F)cc1)*
# Tests used:
# Escherichia coli = assay: Antimicrobial activity against Escherichia coli ATCC 25922 assessed as inhibition of visible bacterial growth incubated for 18 hrs by broth-dilution method; assay type: functional
# Pseudomonas aeruginosa [1] = assay: Antibacterial activity against drug-susceptible Pseudomonas aeruginosa […] assessed as reduction in microbial growth; assay type: functional
# Pseudomonas aeruginosa [2] = assay: Antimicrobial activity against multidrug-resistant Pseudomonas aeruginosa 061 assessed as inhibition of visible bacterial growth incubated for 18 hrs by broth-dilution method; assay type: functional
# Staphylococcus aureus [3] = assay: Antimicrobial activity against methicillin-resistant Staphylococcus aureus 4 assessed as inhibition of visible bacterial growth incubated for 18 hrs by broth-dilution method; assay type: functional
# Erythrocyte = assay: Hemolytic activity against mouse Red blood cell incubated for 1 hr; assay type: toxicity, cell-based
# Pseudomonas aeruginosa [4] = assay: Antimicrobial activity against multidrug-resistant Pseudomonas aeruginosa 157 assessed as inhibition of visible bacterial growth incubated for 18 hrs by broth-dilution method; assay type: functional
# Pseudomonas aeruginosa [5] = assay: Antimicrobial activity against multidrug-resistant Pseudomonas aeruginosa 050 assessed as inhibition of visible bacterial growth incubated for 18 hrs by broth-dilution method; assay type: functional
# Staphylococcus aureus [6] = assay: Antimicrobial activity against methicillin-resistant Staphylococcus aureus ATCC 33591 assessed as inhibition of visible bacterial growth incubated for 18 hrs by broth-dilution method; assay type: functional
# Staphylococcus aureus [7] = assay: Antimicrobial activity against Staphylococcus aureus ATCC 25923 assessed as inhibition of visible bacterial growth incubated for 18 hrs by broth-dilution method; assay type: functional
# Pseudomonas aeruginosa [8] = assay: Antimicrobial activity against multidrug-resistant Pseudomonas aeruginosa 124 assessed as inhibition of visible bacterial growth incubated for 18 hrs by broth-dilution method; assay type: functional
# Pseudomonas aeruginosa [9] = assay: Antibiofilm activity against Pseudomonas aeruginosa ATCC 27853 assessed as biofilm thickness at 2 times MIC90 incubated for 24 hrs by confocal laser scanning microscopic analysis; assay type: functional
# Staphylococcus aureus [10] = assay: Antibiofilm activity against methicillin-resistant Staphylococcus aureus ATCC 33591 assessed as biofilm eradication at 4 times MIC incubated for 2 hrs by crystal violet staining based assay; assay type: functional, organism-based
# Pseudomonas aeruginosa [11] = assay: Antimicrobial activity against multidrug-resistant Pseudomonas aeruginosa 085 assessed as inhibition of visible bacterial growth incubated for 18 hrs by broth-dilution method; assay type: functional
# Pseudomonas aeruginosa [12] = assay: Antimicrobial activity against Pseudomonas aeruginosa ATCC 27853 assessed as reduction in microbial growth in presence of human serum; assay type: functional
# Pseudomonas aeruginosa [13] = assay: Bactericidal activity against Pseudomonas aeruginosa ATCC 27853 at 1 to 4 times MIC by time-kill assay; assay type: functional, organism-based
# Staphylococcus aureus [14] = assay: Antimicrobial activity against Staphylococcus aureus ATCC 25923 assessed as fold change in MIC in presence of salt solution; assay type: functional
# Pseudomonas aeruginosa [15] = assay: Antimicrobial activity against multidrug-resistant Pseudomonas aeruginosa 516 assessed as inhibition of visible bacterial growth incubated for 18 hrs by broth-dilution method; assay type: functional
# Staphylococcus aureus [16] = assay: Antibiofilm activity against methicillin-resistant Staphylococcus aureus ATCC 33591 assessed as biofilm thickness at 2 times MIC90 incubated for 24 hrs by confocal laser scanning microscopic analysis; assay type: functional
# Pseudomonas aeruginosa [17] = assay: Antibiofilm activity against Pseudomonas aeruginosa ATCC 27853 assessed as biofilm thickness at 8 microg/ml incubated for 24 hrs by confocal laser scanning microscopic analysis; assay type: functional; conditions: dose 8 µg/ml
# Staphylococcus aureus [18] = assay: Antibiofilm activity against methicillin-resistant Staphylococcus aureus ATCC 33591 assessed as biofilm thickness at 8 microg/ml incubated for 24 hrs by confocal laser scanning microscopic analysis; assay type: functional; conditions: dose 8 µg/ml
# Pseudomonas aeruginosa [19] = assay: Antimicrobial activity against multidrug-resistant Pseudomonas aeruginosa 156 assessed as inhibition of visible bacterial growth incubated for 18 hrs by broth-dilution method; assay type: functional
# Cell membrane [20] = assay: Disruption of membrane integrity in Pseudomonas aeruginosa ATCC 27853 incubated for 30 mins by PI staining based CLSM analysis
# Pseudomonas aeruginosa [21] = assay: Antimicrobial activity against Pseudomonas aeruginosa ATCC 27853 assessed as fold increase in MIC in presence of human serum; assay type: functional
# Staphylococcus aureus [22] = assay: Antimicrobial activity against Staphylococcus aureus ATCC 25923 assessed as reduction in bacterial growth in presence of human serum; assay type: functional
# Bacillus subtilis = assay: Antimicrobial activity against Bacillus subtilis ATCC 23857 assessed as inhibition of visible bacterial growth incubated for 18 hrs by broth-dilution method; assay type: functional
# Staphylococcus aureus [23] = assay: Antimicrobial activity against methicillin-resistant Staphylococcus aureus 10 assessed as inhibition of visible bacterial growth incubated for 18 hrs by broth-dilution method; assay type: functional
# Pseudomonas aeruginosa [24] = assay: Antibiofilm activity against Pseudomonas aeruginosa ATCC 27853 assessed as inhibition of biofilm formation at 4 to 8 microg/ml incubated for 24 hrs by crystal violet staining based analysis; assay type: functional; conditions: dose 4-8 µg/ml, at 4 to 8 µg/mL
# Staphylococcus aureus [25] = assay: Antimicrobial activity against methicillin-resistant Staphylococcus aureus 8 assessed as inhibition of visible bacterial growth incubated for 18 hrs by broth-dilution method; assay type: functional
# Pseudomonas aeruginosa [26] = assay: Antimicrobial activity against multidrug-resistant Pseudomonas aeruginosa 125 assessed as inhibition of visible bacterial growth incubated for 18 hrs by broth-dilution method; assay type: functional
# Salmonella typhimurium = assay: Antimicrobial activity against Salmonella typhimurium ATCC 14028 assessed as inhibition of visible bacterial growth incubated for 18 hrs by broth-dilution method; assay type: functional, Salmonella enterica subsp. enterica serovar Typhimurium; conditions: Salmonella enterica
# Staphylococcus aureus [27] = assay: Bactericidal activity against Staphylococcus aureus ATCC 33591 at 2 to 4 times MIC; assay type: functional, organism-based
# Staphylococcus aureus [28] = assay: Antimicrobial activity against methicillin-resistant Staphylococcus aureus 9 assessed as inhibition of visible bacterial growth incubated for 18 hrs by broth-dilution method; assay type: functional
# [29] = Stability in human serum assessed as half life measured for 5 hrs by RP-HPLC analysis; assay type: ADME, cell-free
# Staphylococcus aureus [30] = assay: Antimicrobial activity against methicillin-resistant Staphylococcus aureus 6 assessed as inhibition of visible bacterial growth incubated for 18 hrs by broth-dilution method; assay type: functional
# Staphylococcus aureus [31] = assay: Antibiofilm activity against methicillin-resistant Staphylococcus aureus ATCC 33591 assessed as inhibition of biofilm formation at 4 to 8 microg/ml incubated for 24 hrs by crystal violet staining based analysis; assay type: functional; conditions: dose 4-8 µg/ml, at 4 to 8 µg/mL
# Cell membrane [32] = assay: Disruption of membrane integrity in Staphylococcus aureus ATCC 33591 incubated for 30 mins by PI staining based CLSM analysis; assay type: cell membranes
# [33] = tested on: Staphylococcus epidermidis; assay: Antimicrobial activity against Staphylococcus epidermidis ATCC 12228 assessed as inhibition of visible bacterial growth incubated for 18 hrs by broth-dilution method; assay type: functional
# Staphylococcus aureus [34] = assay: Antimicrobial activity against methicillin-resistant Staphylococcus aureus 3 assessed as inhibition of visible bacterial growth incubated for 18 hrs by broth-dilution method; assay type: functional
# Pseudomonas aeruginosa [35] = assay: Antimicrobial activity against Pseudomonas aeruginosa ATCC 27853 assessed as inhibition of visible bacterial growth incubated for 18 hrs by broth-dilution method; assay type: functional
# Staphylococcus aureus [36] = assay: Antimicrobial activity against Staphylococcus aureus ATCC 25923 assessed as reduction in bacterial growth in presence of Ca2+; assay type: functional
# Staphylococcus aureus [37] = assay: Antibiofilm activity against methicillin-resistant Staphylococcus aureus ATCC 33591 assessed as biofilm thickness at 1 times MIC90 incubated for 24 hrs by confocal laser scanning microscopic analysis; assay type: functional
# Pseudomonas aeruginosa [38] = assay: Synergistic antibacterial activity against Pseudomonas […] assessed as fractional inhibitory concentration index in presence of polymyxin B by checkerboard assay; assay type: functional
# Pseudomonas aeruginosa [39] = assay: Antibiofilm activity against Pseudomonas aeruginosa ATCC 27853 assessed as biofilm eradication at 4 times MIC incubated for 1 hr by crystal violet staining based assay; assay type: functional, organism-based
structure (smiles),measurement,setting,value
CC(C)C[C@H](N)CN(CC(=O)N[C@@H](CCCCN)C(=O)N[C@@H](CC(C)C)C(=O)N[C@@H](CC(C)C)C(=O)N[C@@H](CCCCN)C(=O)N[C@@H](CCCCN)C(=O)N[C@@H](CC(C)C)C(=O)N[C@@H](CC(C)C)C(N)=O)S(=O)(=O)c1ccc(C(F)(F)F)cc1 (X1-[X2]KLLKKLL-NH2),MIC,Escherichia coli,16 µg/mL
same,MIC,Pseudomonas aeruginosa [1],4 µg/mL
same,MIC,Pseudomonas aeruginosa [2],8 µg/mL
same,MIC,Staphylococcus aureus [3],4 µg/mL
same,MHC,Erythrocyte,256 µg/mL
same,MIC,Pseudomonas aeruginosa [4],4 µg/mL
same,MIC,Pseudomonas aeruginosa [5],4 µg/mL
same,MIC,Staphylococcus aureus [6],4 µg/mL
same,MIC,Staphylococcus aureus [7],4 µg/mL
same,MIC,Pseudomonas aeruginosa [8],4 µg/mL
same,Activity,Pseudomonas aeruginosa [9],20 um
same,Activity,Staphylococcus aureus [10],Active
same,MIC,Pseudomonas aeruginosa [11],8 µg/mL
same,MIC,Pseudomonas aeruginosa [12],8 µg/mL
same,Activity,Pseudomonas aeruginosa [13],Active
same,fold change (FC),Staphylococcus aureus [14],0.25
same,MIC,Pseudomonas aeruginosa [15],4 µg/mL
same,Activity,Staphylococcus aureus [16],20 um
same,Activity,Pseudomonas aeruginosa [17],20 um
same,Activity,Staphylococcus aureus [18],20 um
same,MIC,Pseudomonas aeruginosa [19],4 µg/mL
same,Activity,Cell membrane [20],Active
same,fold change (FC),Pseudomonas aeruginosa [21],2
same,MIC,Staphylococcus aureus [22],8 µg/mL
same,MIC,Bacillus subtilis,4 µg/mL
same,MIC,Staphylococcus aureus [23],8 µg/mL
same,inhibition (INH),Pseudomonas aeruginosa [24],50%
same,MIC,Staphylococcus aureus [25],4 µg/mL
same,MIC,Pseudomonas aeruginosa [26],8 µg/mL
same,MIC,Salmonella typhimurium,8 µg/mL
same,Activity,Staphylococcus aureus [27],Active
same,MIC,Staphylococcus aureus [28],8 µg/mL
same,half-life,[29],553 min
same,MIC,Staphylococcus aureus [30],4 µg/mL
same,inhibition (INH),Staphylococcus aureus [31],50%
same,Activity,Cell membrane [32],Active
same,MIC,[33],4 µg/mL
same,MIC,Staphylococcus aureus [34],4 µg/mL
same,MIC,Pseudomonas aeruginosa [35],4 µg/mL
same,MIC,Staphylococcus aureus [36],32 µg/mL
same,Activity,Staphylococcus aureus [37],40 um
same,fractional inhibitory concentration index (FICI),Pseudomonas aeruginosa [38],0.5
same,Activity,Pseudomonas aeruginosa [39],Active
